Source: patent US6057153A, “Stabilized external guide sequences” (Yale University, priority 1997, dated 2000)
“Also recorded” adds a separate entry of the source.

Assays:
[1] = tested on: short substrate (SEQ ID NO. 1) derived from the full-length pre-genomic HBV RNA; experiment: RNAse P cleavage assay, short substrate; type: biochemical; settings: short substrate, EGS 200 nM, 37° C., 1 hour
Procedure: RNAse P Cleavage Assays: Cleavage reactions were carried out generally according to the procedure described by Yuan et al., Proc. Natl. Acad. Sci., USA, 89:8006-8010, (1992), which is hereby incorporated by reference. Briefly, short substrate reactions were made up to a total volume of 31μ in 50 mM Tris-HCl pH 7.4, 10 mM MgCl2, 25 mM KCl, 0.1 mM EDTA, […] at 37° C. for 1 hour. After incubation, the reaction solution was mixed with loading buffer (98% formamide, 10 mM EDTA, 0.025% bromophenol blue). The cleaved substrate was separated from the uncleaved by electrophoresis on a 15% acrylamide gel containing 7 M urea. The bands were quantified on a Molecular Dynamics PHOSPHORIMAGER™.
The bands corresponding to the precursor RNA substrate and the resulting two cleavage products were counted from the dried gel using a BETASCOPE™ gel analyzer (Betagen).
RNAse P was purified by DEAE SEPHAROSE™ chromatography and glycerol density gradient centrifugation essentially as described by Bartkiewicz et al., Genes Dev. 3:488-499 (1989), which is hereby incorporated by reference.
The percentage of precursor RNA substrate remaining in either assay was plotted as function of the EGS concentration and the catalytic efficiency expressed as kcat /Km (where kcat is the rate constant of cleavage and Km is the Michaelis constant), the second order rate constant for the reaction of free EGS and substrate. Following the methods of Heidenreich and Eckstein (J. Biol. Chem., 267:1904-1909 (1992), the efficiency of the cleavage reaction, kcat /Km), was determined using the formula
The EGS constructs described in Example 2 were assayed using the RNAse P cleavage assays described in Example 1 to determine the efficiency of the cleavage reaction. FIG. 1 depicts the model system using a short substrate which was used to evaluate the ability of modified EGS molecules in inducing RNase P-mediated target cleavage. The sequence of the short substrate (SEQ ID NO. 1) was derived from the full-length pre-genomic HBV RNA.

Substrate RNA (SUB-156) = experiment: RNase P-mediated cleavage assay, single turnover conditions; type: biochemical, hepatitis B virus (HBV); settings: 200 nM EGS, 20 nM substrate, saturating RNase P, 60 min
Procedure: RNase P-mediated cleavage assay--Human RNase P was purified from HeLa cells according to the published procedures (14). Substrate RNA (SUB-156, FIG. 24) was 5'-end labeled using T4 polynucleotide kinase and [γ-^32P]ATP. The labeling mixture was then heated to 85° C. for 1 min, diluted with RNase-free water, and purified by a MICROSPIN™ G-25 column (Pharmacia) according to the manufacturer's instructions. Cleavage reactions were conducted in a reaction buffer containing 50 mM Tris-HCl (pH 7.4), 25 mM KCl, 10 mM MgCl2 and 0.1 mM EDTA. EGS oligomers and ^32 p-5'-end-labeled RNA substrate were heated in the reaction buffer without MgCl2 to 85° C. for 1 min and then slowly cooled to room temperature. The cleavage reaction was initiated by adding 2 μl of 100 mM MgCl2 and 3 μl of RNase P (enzyme activity for this preparation: cleavage of 0.035 pmol of tRNA^Tyr precursor min^-1 μl^-1). The final reaction volume was 20 μl and the reaction was incubated at 37° C. for 60 min. […] For each sample, cleavage reactions were performed in duplicates and the average values were used. To ensure reproducibility, cleavage assays for each EGS were also repeated in two separate experiments. The all-RNA EGS-159 was used as the reference sample and its cleavage values were counted as 100%. Cleavage percentages of all other EGSs were normalized against EGS-159 (Rel. Cleavage %) except in FIG. 30 and FIG. 31 where absolute cleavage percentages (Abs. Cleavage %) were plotted.
For EGS-single turnover conditions, the final concentrations were 200 nM for EGS and 20(nM for the RNA substrate. For EGS-multiple turnover conditions, the final concentrations were 200 nM for the RNA substrate and 40 nM for EGS. When determination of the time-course was required, the reaction volume was increased to 40 μl. Aliquots of 5-8 μl were removed from the reaction mixture at different time points (e.g. 1, 5, 15, 30 and 60 min), quenched in formamide loading buffer, and loaded onto 15% polyacrylamide/8 M urea gels. Quantitation of the cleavage product and the remaining RNA substrate was achieved using a Molecular Dynamics PHOSPHORIMAGER™.
General considerations--To select lead nuclease-resistant oligonucleotide prototypes as external guide sequences among many possible modifications, a reliable yet rapid in vitro cleavage assay for routine screening was used. Human RNase P, a ribonucleoprotein, is composed of a 340-nt H1 RNA component and one or more proteins (for recent review, see Ref. 16). A 3-step screening strategy was devised: 1) All analogues once synthesized were tested by a fast qualitative cleavage assay under single turnover conditions with 10-fold excess of EGS over target RNA substrate for 60 min. […] This was the best cleavage condition used in this study. Any analogue with a reasonable activity (e.g. more than 5% cleavage) would not be missed, under these circumstances, due to the high detection sensitivity provided by PHOSPHORIMAGER™. 2) Promising analogues were then assayed for stability in 50% human serum.

2.1 kb HBV RNA = experiment: RNAse P cleavage of large target RNA; type: biochemical; settings: 250 nM EGS, 30 minutes at 37° C.
Procedure: To test cleavage with a longer target RNA molecules, different reaction conditions were used. Reactions in a total volume of 10 μl contained 40 mM Tris-HCl (pH 7.4), 10 mM MgCl2, 1 mM spermidine 10 mM dithiothreitol, 0.05 μg/μl nuclease-free bovine serum albumin, 0.01% (v/v) Triton-X100™, 0.8 Units/μl RNASIN, 0.2 mM ATP, 0.2 mM GTP, 0.2 mM UTP, 0.2 mM CTP, 0.1 μCi/μl [a^32 P] CTP, 2 mM m^7 G(5')pppG, 0.06 μg/μl yeast RNA, 25 mM KCl, 3 Units T7 RNA polymerase, 250 nM EGS, 1 μl of human RNAse P and 3 ng/μl linearized plasmid. Reactions were initiated by the addition of linearized plasmid and incubated for 30 minutes at 37° C. Reactions were terminated by the addition of 10 μl of 80% formaemide, 10 mM EDTA, 0.1% bromphenol blue. After heating for 2 minutes at 90° C., samples were electrophoresed for 2 hours at 48 watts on a 5% denaturing polyacrylamide gel. After vacuum drying for 1 hour at 60° C., the gel was analyzed by phosphoimaging.
Cleavage of Large Target RNA: Plasmid pAYW2.1, containing the sequence that encodes the 2.1 kb RNA of the AYW strain of HBV, was linearized by digestion with Not I, and then transcribed by T7 RNA polymerase in the presence of [α^32 P]CTP. Labeled transcripts were incubated for 30 minutes at 37° C. with RNase P in the presence of various EGS molecules. Reaction products were subjected to denaturing polyacrylamide gel electrophoresis, and analyzed by phosphoimaging. EGS-mediated cleavage at the targeted site of the 2.1 kb transcript produces cleavage products that are approximately 1.7 and 0.4 kb in length.

[2] = Nuclease resistance studies in 50% human serum; type: in vitro ADME; settings: 37° C.
Procedure: Nuclease resistance studies--100 μl of EGS oligonucleotides (5 μM), containing a trace of 5'-end-labeled oligomers, were incubated at 37° C. for different time periods (0-24 h) with 50% human serum (Sigma, S-7023). 20 μl aliquots were diluted to 100 μl with RNase-free water, phenol/chlorform extracted, and ethanol precipitated. The residue was resuspended in 10 μl of TE and 10 μl of 2× gel loading buffer containing 98% formamide, 10 mM1 EDTA and 0.1% bromophenol blue. The mixture was heated to 85° C. for 1 min, quickly cooled on ice and frozen at -20° C. prior to electrophoresis on 15% polyacrylamide/8 M urea gels. Gels were subsequently scanned on a Molecular Dynamics PHOSPHORIMAGER™, and the stability profile for each, oligomer was estimated from the ratio of the remaining intact materials versus all radio-labeled materials (intact oligomers plus degradation products). Stability studies of non radio-labeled EGS oligomers using capillary gel electrophoresis were also carried out according to the method of Leeds et al. (15).

With “INNO-124: SEQ ID NO. 2, 2'-O-methyl arms, variable loop, T stem and first 5'-U of T loop (CGAUACGGAAGGUUCGAAUCCUUCCCAGGAC; 2'-O-methyl modifications, chemistry not fully specified)” the “efficiency of RNase P-mediated target cleavage relative to the wild-type EGS” value [1] was “most pronounced decrease in cleavage efficiency”.
With “EGS-381: C56 in the T-loop substituted with rG, SEQ ID NO. 41 (guide AGAUGAUAGAAGGUUGGAAUCCUUCACGCCGC; Riboguanosine at tRNA position 56 of T-loop, rest of chemistry not given here)” the “RNase P-mediated cleavage activity compared to the all-RNA control” value (Substrate RNA (SUB-156)) was “effectively substituted”.
For “EGS-404: no RNA residues, remaining riboadenosines replaced by deoxynucleotides, SEQ ID NO. 48 (AGAUGAUAGAAGGAUAGAAUCCUUCACGCCGC; guide RNA; No RNA residues, remaining riboadenosines replaced by deoxynucleotides, other modifications not given here)”, the “RNase P-mediated cleavage activity compared to the all-RNA control” value (Substrate RNA (SUB-156)) was “Significant reduction in activity”.
In the case of “EGS-400: no RNA residues, remaining riboadenosines replaced by deoxynucleotides, SEQ ID NO. 47 (AGAUGAUAGAAGGUUAGAAUCCUUCACGCCGC; guide RNA; No RNA residues, remaining riboadenosines replaced by deoxynucleotides, other modifications not given here)”, the “RNase P-mediated cleavage activity compared to the all-RNA control” value (Substrate RNA (SUB-156)) is reported as “Significant reduction in activity”.
With “INNO-126: SEQ ID NO. 2, 2'-O-methyl arms, variable loop, T stem and third 5'-C of T loop (CGAUACGGAAGGUUCGAAUCCUUCCCAGGAC; 2'-O-methyl modifications, chemistry not fully specified)” the “efficiency of RNase P-mediated target cleavage relative to the wild-type EGS” value [1] was “most pronounced decrease in cleavage efficiency”.
In the case of “EGS H62: all-RNA EGS, SEQ ID NO. 3, prepared by T7 RNA polymerase transcription (guide CGAUGAAGGUUCGAAUCCUUCCCAGGAC; unmodified RNA)”, the “RNase P-mediated cleavage of 2.1 kb HBV RNA” value (2.1 kb HBV RNA) is reported as “Complete cleavage”.
With “EGS-399: U54 replaced with riboadenosine, SEQ ID NO. 45 (AGAUGAUAGAAGGAUAGAAUCCUUCACGCCGC; guide RNA; Riboadenosine at tRNA position 54, rest of chemistry not given here)” the “fraction degraded in 50% human serum” value ([2]; 24 h) was 16% and the “RNase P-mediated cleavage activity compared to the all-RNA control” value (Substrate RNA (SUB-156)) was “promising”.
In the case of “EGS-380: C56 in the T-loop substituted with rA, SEQ ID NO. 40 (guide AGAUGAUAGAAGGUUAGAAUCCUUCACGCCGC; Riboadenosine at tRNA position 56 of T-loop, rest of chemistry not given here)”, the “RNase P-mediated cleavage activity compared to the all-RNA control” value (Substrate RNA (SUB-156)) is reported as “effectively substituted”.
For “EGS-405: no RNA residues, remaining riboadenosines replaced by deoxynucleotides, SEQ ID NO. 49 (AGAUGAUAGAAGGTUAGAAUCCUUCACGCCGC; guide RNA; No RNA residues, remaining riboadenosines replaced by deoxynucleotides, other modifications not given here)”, the “RNase P-mediated cleavage activity compared to the all-RNA control” value (Substrate RNA (SUB-156)) was “Significant reduction in activity”.
In the case of “EGS-406: no RNA residues, remaining riboadenosines replaced by deoxynucleotides, SEQ ID NO. 50 (AGAUGAUAGAAGGUUAGAAUCCUUCACGCCGC; guide RNA; No RNA residues, remaining riboadenosines replaced by deoxynucleotides, other modifications not given here)”, the “RNase P-mediated cleavage activity compared to the all-RNA control” value (Substrate RNA (SUB-156)) is reported as “Significant reduction in activity”.
In the case of “EGS-364: EGS-356 with disrupted T-stem, SEQ ID NO. 34 (guide AGAUGAUACACUGUUCGAAUGGUACACGCCGCN; chemistry not given here)”, the “stability in 50% human serum” value ([2]; experiment of 2 h) is reported as “did not change the results”.
For “INNO-149: SEQ ID NO. 3, 2'-O-methyl arms and T stem, phosphorothioate T loop, 3'-amino group (CGAUGAAGGUUCGAAUCCUUCCCAGGAC; 2'-O-methyl, phosphorothioate T loop, 3'-amino, chemistry not fully specified)”, the “RNase P-mediated cleavage of 2.1 kb HBV RNA” value (2.1 kb HBV RNA) was “capable of inducing RNase P-mediated cleavage; also recorded: mostly cleaved” and the “RNase P-mediated cleavage of 2.1 kb HBV RNA” value (2.1 kb HBV RNA; listed as analogue 149) was “more effective than analogue 155”.
